The structures appear in SMILES notation. Like-named read-outs stand apart in the source and are kept apart here.

In series [1] the target is T1, human Kv4.3/KChIP2.2 potassium channel (Homo sapiens, UniProt Q9UK17).
T1 construct: expressed in transfected cells
T1 sequence (Q9UK17 1-655): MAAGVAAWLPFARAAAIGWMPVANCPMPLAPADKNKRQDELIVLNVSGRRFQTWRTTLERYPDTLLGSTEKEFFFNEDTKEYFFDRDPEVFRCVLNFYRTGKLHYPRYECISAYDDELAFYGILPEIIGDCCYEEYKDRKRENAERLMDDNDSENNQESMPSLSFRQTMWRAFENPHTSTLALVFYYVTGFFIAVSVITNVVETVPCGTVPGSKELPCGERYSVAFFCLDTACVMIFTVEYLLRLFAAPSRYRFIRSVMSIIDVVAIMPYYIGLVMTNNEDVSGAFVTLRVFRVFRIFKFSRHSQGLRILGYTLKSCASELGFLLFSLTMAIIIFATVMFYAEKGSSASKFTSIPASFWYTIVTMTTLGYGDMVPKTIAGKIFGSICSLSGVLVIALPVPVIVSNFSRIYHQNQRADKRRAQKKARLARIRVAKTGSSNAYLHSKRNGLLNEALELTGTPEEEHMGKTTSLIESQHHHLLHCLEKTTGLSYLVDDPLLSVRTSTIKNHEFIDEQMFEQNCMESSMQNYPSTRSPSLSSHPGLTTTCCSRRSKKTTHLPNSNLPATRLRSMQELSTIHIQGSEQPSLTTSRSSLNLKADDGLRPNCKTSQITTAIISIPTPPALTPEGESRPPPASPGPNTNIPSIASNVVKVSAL
T1 sequence (Q9NS61 1-270 partner): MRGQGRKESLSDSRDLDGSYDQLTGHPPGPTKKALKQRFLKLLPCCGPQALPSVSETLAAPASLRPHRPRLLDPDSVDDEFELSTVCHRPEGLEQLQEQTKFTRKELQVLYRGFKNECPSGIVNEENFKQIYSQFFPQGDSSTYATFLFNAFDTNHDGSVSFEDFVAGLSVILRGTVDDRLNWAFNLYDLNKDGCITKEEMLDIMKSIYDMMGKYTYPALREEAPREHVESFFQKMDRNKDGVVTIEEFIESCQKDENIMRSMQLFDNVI
The series can be described thus: Whole cell patch clamp, CHO-K1 cells stably expressing Kv4.3/KChIP2.2. The class given is cell-based. Particulars: for remaining activity at 1 µM: CHO-K1; for IC50: Table 12, read-out: Kv4.3 charge IC50. Here is the method: For this experiment, a recombinant CHO-K1 cell line stably expressing the human Kv4.3/KChIP2.2 potassium channel was used.
Protocol B: The cells were cultured in 94 mm culture dishes under the culturing conditions of 5% CO2 and 37° C. Subculturing was performed every 3-4 days, by removing the media and then rising the dish with 8 ml PBS (phosphate buffered saline). The PBS was removed and 1 ml Trypsin/EDTA was added to the cells. The cells were incubated about 2 min at 37° C. or 5 min at room temperature and then the dish was rapped to detach and singularize the cells. To inactivate the enzyme 9 ml of media was added and the solution was pipetted up and down to break up clumps of cells. Part of the suspension was then transferred to a new 94 mm dish and media was added to a final volume of 8 ml. If necessary the cells could be seeded onto 35 mm or 94 mm dishes (2 ml media per 35 mm dish and 8 ml media per 94 mm dish). The media was changed every 2-3 days. The media used was the solution for culturing the cells described above. For stable cells antibiotic G418, Hygromycin, Blasticidin, or Zeocin were not added.
The preparation of cells for electrophysiological experiments was performed as described in protocol C hereunder.
Protocol C: The transfected cells and stable cells were transferred from 35 mm cell culture dishes onto coverslips using cold PBS: The media was removed and 0.3 ml of PBS (4-10° C.) was added. The cells were incubated 5 min at room temperature. The dish was rapped to detach and singularize the cells and 1.7 ml media was added and the solution pipetted up and down to break up clumps of cells. Part of the cell suspension was then transferred to a 35 mm dish with coverslips and media. The transfected cells and stable cells could also be transferred from 35 mm cell culture dishes onto coverslips using trypsin: The media was removed and the dish rinsed with 3 ml PBS. The PBS was removed and 0.3 ml 1× Trypsin/EDTA was added and the cells incubated 5 min at room temperature. The dish was rapped to detach and singularize the cells and 1.7 ml media was added and the solution pipetted up and down to break up clumps of cells. Part of the cell suspension was then transferred to a 35 mm dish with coverslips and media.
10 mM stock solutions of the compounds were prepared in DMSO. Solutions of the compounds were prepared by dilution of stock solution in bath solution. If the required stock solution volume was theoretically below 1 μl, bath solutions with higher compound concentration were used for dilution. The maximal DMSO concentration during experiments was 0.1% (v/v).
For patch clamp experiments, the following solutions in demineralized water as vehicle were used (concentration in mM).
Bath (external) solution: 4 KCl, 135 NaCl, 2 CaCl2, 1 MgCl2, 10 D(+)-Glucose, 5 HEPES, pH 7.4 (NaOH).
Pipette (internal) solution: 130 KCl, 1 MgCl2, 10 EGTA, 5 Na2ATP, 5 HEPES, pH 7.4 (KOH).
Experiments were performed using a patch clamp set-up.
Measurements were performed at room temperature (20-25° C.). […] Each cell acted as its own control. The effect of compounds on Kv4.3/KChIP2.2 mediated currents was investigated at one concentration ([…]) with two replicates each (c=1, n=2).
The test protocols are illustrated in FIG. 1 and Table 4. […] Each test protocol consisted of 4 segments.
Subsequently, 14 test pulses (series 1; FIG. 1b and Table 4b) were applied at 0.1 Hz under constant superfusion with bath solution. The protocol was initiated by a voltage jump to −100 mV (400 ms) to achieve full inactivation. Then the Kv4.3/KChIP2.2 channels were transferred to the open state by depolarization to +40 mV for 300 milliseconds (activation). Only cells generating current amplitudes between 1 nA and 50 nA were used for the experimental procedure. No or negligible rundown was observed.
Then, 36 test pulses (series 2) were applied at 0.1 Hz under constant superfusion with the compound dissolved in bath solution. […]
For orientation: In patch-clamp work, channel activity is measured electrically.

Where [2] appears, read: read-out: Kv4.3 charge in %: remaining current measured after application of the compound and relative to the blank.
Where [3] appears, read: read-out: Kv4.3 peak in %: remaining peak height measured after application of the compound and relative to the blank.

On to `O=C(NCc1ccccc1-c1ccccc1)c1cc2cc(Cl)ccc2o1` [Compound 72, 5-chloro-benzofuran-2-carboxylic acid (biphenyl-2-ylmethyl)-amide], for which the melting point (commonly the temperature, or range, at which the solid turns liquid) lay within 129.8 to 132.8 °C.
On the same count and under the same terms, then `COc1ccc(CNC(=O)c2cc3cc(Cl)ccc3[nH]2)c(OC)c1` [Compound 111, 5-chloro-1H-indole-2-carboxylic acid 2,4-dimethoxy-benzylamide], with 205.7 to 209.3 °C.
For the compound `COc1ccc(CC(=O)c2cc3ccccc3o2)c(OC)c1` [Compound 23, 1-benzofuran-2-yl-2-(2,4-dimethoxy-phenyl)-ethanone], the values for the remaining activity at 1 µM in series [1] (setting [2]) and in series [1] (setting [3]) were 83% and 99%, respectively.
Turning to `COC(=O)c1cccc(CNC(=O)c2cc3cc(Cl)ccc3o2)c1` [Compound 65, 5-{[(5-chloro-benofuran-2-carbonyl)-amino]-methyl}-benzoic acid methyl ester], the melting point was in the range of 154 to 155.6 °C.
On the same count and under the same terms, then `Cc1cccc(CNC(=O)c2cc3cc(Cl)ccc3o2)c1` [Compound 70, 5-chloro-benzofuran-2-carboxylic acid 3-methyl-benzylamide], with 148.4 to 149.4 °C; and `Cc1cc(Cl)cc(Cl)c1CNC(=O)c1cc2cc(Cl)ccc2o1` [Compound 119, 5-chloro-benzofuran-2-carboxylic acid 2,4-dichloro-6-methyl-benzylamide], with 210 to 212 °C; and `COc1ccccc1C1CCN(C(=O)c2cc3cc(Cl)ccc3o2)CC1` [Compound 95, (5-chloro-benzofuran-2-yl)-[4-(2-methoxy-phenyl)-piperidin-1-yl]-methanone], with 146.1 to 147.4 °C.
The compound `O=C(NCc1cccc(-c2ccccc2)c1)c1cc2cc(Cl)ccc2o1` [Compound 73, 5-chloro-benzofuran-2-carboxylic acid (biphenyl-3-ylmethyl)-amide] gave a melting point of 130.4 to 131 °C.
On the same count and under the same terms, then `CN(C)C(=O)c1cccc(CNC(=O)c2cc3cc(Cl)ccc3o2)c1` [Compound 66, 5-chloro-benzofuran-2-carboxylic acid 3-dimethylcarbamoyl-benzylamide], with 105.1 to 109.4 °C.
As for `COc1ccc(CNC(=O)c2oc3ccc(Cl)cc3c2NC(C)=O)c(OC)c1` [Compound 115, 3-acetylamino-5-chloro-benzofuran-2-carboxylic acid 2,4-dimethoxy-benzylamide], the melting point fell in the range of 165.5 to 170.3 °C.
In turn, `O=C(NCc1cccc(OC(F)(F)F)c1)c1cc2cc(Cl)ccc2o1` [Compound 88, 5-chloro-benzofuran-2-carboxylic acid 3-trifluoromethoxy-benzylamide] came in with a melting point of 133.5 to 137.9 °C.
Consider `Cc1ccc2[nH]cc(CCNC(=O)c3cc4cc(Cl)ccc4o3)c2c1` [Compound 3, 5-chloro-benzofuran-2-carboxylic acid [2-(5-methyl-1H-indole-3-yl)-ethyl]-amide], for which, in series [1], the IC50 (as a rule, the point on the concentration scale where inhibition reaches its midpoint) was found to be 1.33 µM.
`O=C(NCc1ccncc1)c1cc2cc(Cl)ccc2o1` [Compound 81, 5-chloro-benzofuran-2-carboxylic acid (pyridin-4-ylmethyl)-amide]: the melting point is 163.1 to 166.2 °C.
`COC(=O)[C@@H](NC(=O)c1cc2cc(Cl)ccc2o1)c1ccccc1` [Compound 85, (S)[(5-chloro-benzofuran-2-carbonyl)-amino]-phenyl-acetic acid methyl ester]: the melting point lay in the range of 76.5 to 79.1 °C.
For the compound `CC[C@@H](NC(=O)c1cc2cc(Cl)ccc2o1)c1ccccc1` [Compound 58, 5-chloro-benzofuran-2-carboxylic acid ((R)-1-phenyl-propyl)-amide], the melting point was in the range of 118.5 to 120.7 °C.
Regarding `COc1ccc(CNC(=O)c2cc3ccccc3o2)c(OC)c1` [Compound 12, benzofuran-2-carboxylic acid 2,4-dimethoxy-benzylamide], the remaining activity at 1 µM in series [1] (setting [2]) turned out to be 89%; in series [1] (setting [3]), 97%.
Consider `O=C(c1cc2cc(Cl)ccc2o1)N1CCC(Cc2ccccc2)CC1` [Compound 101, (4-benzyl-piperidin-1-yl)-(5-chloro-benzofuran-2-yl)-methanone], for which the melting point was 114.6 to 116.2 °C.
In the case of `O=C(NCC1COc2ccccc2O1)c1cc2cc(Cl)ccc2o1` (centres unmarked) [Compound 113, 5-chloro-benzofuran-2-carboxylic acid (2,3-dihydro-benzo[1,4]dioxin-2-ylmethyl)-amide], the melting point fell in the range of 121.1 to 124.3 °C.
Still for that read-out and setting: then `CN(C)S(=O)(=O)c1ccc(CNC(=O)c2cc3cc(Cl)ccc3o2)cc1` [Compound 67, 5-chloro-benzofuran-2-carboxylic acid 4-dimethylsulfamoyl-benzylamide], with 163.9 to 166.6 °C; and `O=C(NCc1ccc(F)c(C(F)(F)F)c1)c1cc2ccccc2o1` [Compound 50, benzofuran-2-carboxylic acid 4-fluoro-3-trifluoromethyl-benzylamide], with 89.5 to 91.6 °C.
Regarding `Cc1c(C(=O)N2CCCCC2Cc2ccccc2)oc2ccc(Cl)cc12` (centres unmarked) [Compound 106, (2-benzyl-piperidin-1-yl)-(5-chloro-3-methyl-benzofuran-2-yl)-methanone], the remaining activity at 1 µM in series [1] (setting [2]) is 59%; in series [1] (setting [3]), 87%.
`O=C(NCc1ccccc1)c1cc2cc(Cl)ccc2o1` [Compound 47, 5-chloro-benzofuran-2-carboxylic benzylamide]: the remaining activity at 1 µM in series [1] (setting [2]) amounted to 87%; in series [1] (setting [3]) it was 95%.
As to `Cc1ccc(C2CCN(C(=O)c3cc4cc(Cl)ccc4o3)CC2)cc1` [Compound 98, (5-chloro-benzofuran-2-yl)-(4-p-tolyl-piperidin-1-yl)-methanone], the remaining activity at 1 µM in series [1] (setting [2]) is 80%; in series [1] (setting [3]), 97%.
Regarding `O=C(c1ccc(Cl)cc1)C1CCN(C(=O)c2cc3cc(Cl)ccc3o2)CC1` [Compound 7, (5-chloro-benzofuran-2-yl)-[4-(4-chloro-benzoyl)-piperidin-1-yl]-methanone], the IC50 in series [1] turned out to be 0.89 µM.

The values are drawn from patent US20080039442A1, “Compounds With Kv4 Ion Channel Activity” (Devgen NV, priority 2004, published 2008).
